Measurements as given in the Deep4Chem optical property database.
Values belong to the molecule of their own block, whether it stands above or below them.

Assay: solvent given as SMILES

absorption maximum (in C1CCCCC1): 412 nm
absorption maximum (in CC#N): 439 nm
absorption maximum (in CCO): 438 nm
absorption maximum (in c1ccccc1): 433 nm
SMILES: CN(C)c1cccc2c1-c1ccccc1C2=O

absorption maximum (in ClC(Cl)Cl): 706 nm
SMILES: COc1ccc2c(c1)SCC1=C(c3ccccc3)C3=Nc4c(-c5ccccc5)c5c(n4[B-](F)(F)[N+]3=C12)-c1ccc(OC)cc1SC5

absorption maximum (in CC#N): 404 nm
SMILES: CCOC(=O)c1c2c3c(ccc(C)c3c3cc4ccccc4cc13)N(C)C2=O

absorption maximum (in ClCCl): 467 nm
SMILES: FC(F)(F)c1ccc(C#Cc2cc(C#Cc3ccc(C(F)(F)F)cc3)c3ccc4c(C#Cc5ccc(C(F)(F)F)cc5)cc(C#Cc5ccc(C(F)(F)F)cc5)c5ccc2c3c54)cc1

SMILES: F[B-]1(F)OC(c2ccccc2)=Cc2cc(Cl)nc[n+]21
absorption maximum (in C1CCOC1): 374 nm
absorption maximum (in CC#N): 371 nm
absorption maximum (in CCCCCC): 373 nm
absorption maximum (in Cc1ccccc1): 377 nm
absorption maximum (in ClC(Cl)Cl): 376 nm
absorption maximum (in ClCCl): 375 nm

SMILES: CC1(C)c2ccccc2N(c2ccc3c(c2)c2cc(N4c5ccccc5C(C)(C)c5ccccc54)ccc2c2nc(C#N)c(C#N)nc32)c2ccccc21
absorption maximum (in Cc1ccccc1): 464 nm

SMILES: CN(C)CCN(Cc1c2ccccc2cc2ccccc12)c1ccc([N+](=O)[O-])cc1[N+](=O)[O-]
absorption maximum (in C1CCCCC1): 372 nm
absorption maximum (in C1CCOC1): 394 nm
absorption maximum (in CC#N): 392 nm
absorption maximum (in CC(C)=O): 392 nm
absorption maximum (in CCO): 394 nm
absorption maximum (in CN(C)C=O): 395 nm
absorption maximum (in CO): 391 nm
absorption maximum (in CS(C)=O): 397 nm
absorption maximum (in ClC(Cl)Cl): 393 nm
absorption maximum (in ClCCl): 394 nm

absorption maximum (in O): 325 nm
SMILES: COc1ccc2ccc(O)cc2c1

absorption maximum (in CC#N): 315 nm
SMILES: C(#Cc1nccnc1C#Cc1ccccc1)c1ccccc1

absorption maximum (in C1CCOC1): 299 nm
absorption maximum (in C1COCCO1): 310 nm
SMILES: c1ccc(-c2ccc(-c3ccc(-c4ccccc4)cc3)cc2)cc1

absorption maximum (in ClCCl): 370 nm
SMILES: Cc1ccc(/C=C/c2nc(-c3cccc([N+](=O)[O-])c3)[nH]c2/C=C/c2ccc(C)cc2)cc1

absorption maximum (in CN(C)C=O): 313 nm
SMILES: Cc1nc2cccc(-c3nc4ccccc4[nH]3)c2c(=O)[nH]1

SMILES: Oc1ccccc1/C=N/N=C/c1ccccc1O
absorption maximum (in CC#N): 355 nm
absorption maximum (in CC(C)CCCC(C)CCCC(C)CCCCC(C)CCCC(C)CCCC(C)C): 363 nm
absorption maximum (in CCCCCC): 361 nm
absorption maximum (in CCCCCCCCC): 362 nm
absorption maximum (in CCCCCCCCCCCCCCCC): 363 nm
absorption maximum (in CCCCl): 359 nm
absorption maximum (in CCN(CC)CC): 359 nm
absorption maximum (in CCO): 356 nm
absorption maximum (in CCOCC): 358 nm
absorption maximum (in CO): 355 nm
absorption maximum (in O=C(O)C(F)(F)F): 398 nm
absorption maximum (in OC(C(F)(F)F)C(F)(F)F): 345 nm
absorption maximum (in OCC(F)(F)F): 350 nm
absorption maximum (in OCCO): 357 nm

SMILES: CCCCCCc1ccsc1-c1ccc(-c2sc(C(=O)O)cc2CCCCCC)s1
absorption maximum (in CC(C)=O): 361 nm
absorption maximum (in CCCCCC): 357 nm
absorption maximum (in CCO): 352 nm
absorption maximum (in CO): 352 nm
absorption maximum (in ClCCl): 364 nm
absorption maximum (in O): 365 nm

absorption maximum (in CCO): 381 nm
SMILES: O=c1c2cc(F)c(O)cc2n(Cc2ccccc2)c2cc(O)c(F)cc12

absorption maximum (in CO): 786 nm
SMILES: CC1(C)C(/C=C/C2=C(Cl)C(=C/C=C3/N(Cc4ccc(C(=O)O)cc4)c4ccccc4C3(C)C)/CCC2)=[N+](Cc2ccc(C(=O)O)cc2)c2ccccc21

absorption maximum (in ClCCl): 353 nm
SMILES: Cc1nnc(-c2cc(-n3c4ccccc4c4ccccc43)c(-n3c4ccccc4c4ccccc43)cc2-c2nnc(C)o2)o1

absorption maximum (in ClC(Cl)Cl): 421 nm
SMILES: CCCCCCCCn1c(=O)c2cc3cc4cc5c(=O)n(CCCCCCCC)c(=O)c5cc4cc3cc2c1=O

absorption maximum (in ClCCl): 749 nm
SMILES: CCN(CC)c1ccc2c(-c3ccccc3C(=O)O)c3c([o+]c2c1)/C(=C/C=C/c1ccc(N(C)C)cc1)CCC3

absorption maximum (in CC#N): 360 nm
SMILES: Fc1nc(F)c(F)c(C#Cc2cc3c(cc2C#Cc2c(F)c(F)nc(F)c2F)OC2(CCCCC2)O3)c1F

absorption maximum (in O): 649 nm
SMILES: COc1ccccc1C1=C2C=CC(=[N+](C)C)C=C2[Si](C)(C)c2cc(N(C)C)ccc21

absorption maximum (in ClC(Cl)Cl): 430 nm
SMILES: N#Cc1c2oc3ccccc3oc2c(C#N)c2oc3ccccc3oc12

absorption maximum (in ClC(Cl)Cl): 412 nm
SMILES: CCN(CC)c1ccc2cc(-c3ccc(-c4ccc5ccc6c(-c7ccc(-c8cc9ccc(N(CC)CC)cc9oc8=O)cc7)ccc7ccc4c5c76)cc3)c(=O)oc2c1

SMILES: COc1ccc2c3cccc4c(OC)ccc(c5cccc1c52)c43
absorption maximum (in C1CCOC1): 458 nm
absorption maximum (in Cc1ccccc1): 459 nm
absorption maximum (in ClC(Cl)(Cl)Cl): 460 nm
absorption maximum (in ClC(Cl)Cl): 459 nm
absorption maximum (in ClCCl): 459 nm
absorption maximum (in c1ccncc1): 463 nm

absorption maximum (in ClC(Cl)Cl): 330 nm
SMILES: O=c1oc2ccccc2cc1-c1cccc(-c2cc3ccccc3oc2=O)c1

SMILES: O=C1NC(=O)c2c1c1c3ccccc3[nH]c1c1[nH]c3ccccc3c21
absorption maximum (in C1CCOC1): 400 nm
absorption maximum (in CC#N): 402 nm
absorption maximum (in CC(C)OC(C)C): 391 nm
absorption maximum (in CCCCOCCCC): 393 nm
absorption maximum (in CCO): 405 nm
absorption maximum (in CCOC(C)=O): 398 nm
absorption maximum (in CN(C)C=O): 409 nm
absorption maximum (in Cc1ccccc1): 398 nm
absorption maximum (in ClCCl): 401 nm

absorption maximum (in CO): 785 nm
SMILES: CC1(C)C(/C=C/C2=C(Cl)C(=C/C=C3/N(Cc4ccc([N+](=O)[O-])cc4)c4ccccc4C3(C)C)/CCC2)=[N+](Cc2ccc([N+](=O)[O-])cc2)c2ccccc21

absorption maximum (in C1CCCCC1): 286.2 nm
SMILES: COc1ccc(OC)cc1

absorption maximum (in CCO): 368 nm
SMILES: CC(C)(C)Nc1cc2oc3cc(NC(C)(C)C)c(F)cc3c(=O)c2cc1F

SMILES: FC(F)(F)C(F)(F)C(F)(F)C1=NC2=C(c3ccc4ccc5cccc6ccc3c4c56)C=C3c4cc(-c5ccc6ccc7cccc8ccc5c6c78)c5nc(C(F)(F)C(F)(F)C(F)(F)F)nc6c(-c7ccc8ccc9cccc%10ccc7c8c9%10)cc(c4c56)=C4C=C(c5ccc6ccc7cccc8ccc5c6c78)C(=N1)C2C34 (stereo not given)
absorption maximum (in C1CCOC1): 524 nm
absorption maximum (in Cc1ccccc1): 560 nm

absorption maximum (in ClC(Cl)Cl): 422 nm
SMILES: COc1ccc2c(C#N)cc3ccc4cc(C#N)c5ccc(OC)cc5c4c3c2c1

SMILES: Cc1cc(C)c(B(c2ccc(C#Cc3cc4ccc5cc(C#Cc6ccc(B(c7c(C)cc(C)cc7C)c7c(C)cc(C)cc7C)cc6)cc6ccc(c3)c4c56)cc2)c2c(C)cc(C)cc2C)c(C)c1
absorption maximum (in Cc1ccccc1): 414 nm

absorption maximum (in ClC(Cl)Cl): 439 nm
SMILES: COc1ccc(C2=Cc3ccc4ccccc4[n+]3[B-](F)(F)O2)cc1

SMILES: N#Cc1ccc(N(c2ccc(C#N)cc2)c2ccc3c4cccc5c(N(c6ccc(C#N)cc6)c6ccc(C#N)cc6)ccc(c6cccc2c63)c54)cc1
absorption maximum (in C1CCCCC1): 446 nm
absorption maximum (in C1CCOC1): 452 nm
absorption maximum (in CC#N): 446 nm
absorption maximum (in Cc1ccccc1): 451 nm
absorption maximum (in ClCCl): 450 nm

absorption maximum (in ClC(Cl)Cl): 393 nm
SMILES: CCCCCCn1c2ccccc2c2cc3c4cc5c6ccccc6n(CCCCCC)c5cc4c4cc5c(C)cc(=O)oc5cc4c3cc21

absorption maximum (in ClCCl): 793 nm
SMILES: Cc1ccc(C2=[N+]3C(=Nc4c5ccccc5c(-c5ccc(C)s5)n4[B-]3(F)F)c3ccccc32)s1

absorption maximum (in ClC(Cl)Cl): 574 nm
SMILES: CCCCCCCCCCCCSc1cc2c3c(ccc4c5c(SCCCCCCCCCCCC)cc6c7c(ccc(c1c34)c75)C(=O)N(C1CCCCC1)C6=O)C(=O)N(C1CCCCC1)C2=O

SMILES: COc1ccc2c(c1)-c1nc(-c3ccccc3)c3ccccc3[n+]1[B-](F)(F)O2
absorption maximum (in Cc1ccccc1): 434 nm

absorption maximum (in ClCCl): 314 nm
SMILES: CCCCN1C(=O)c2cccc3cc(C#CC#Cc4cc5c6c(cccc6c4)C(=O)N(CCCC)C5=O)cc(c23)C1=O

absorption maximum (in ClC(Cl)Cl): 342 nm
SMILES: COc1cc(OC)c2cc(-c3ccccc3CC#N)c(=O)oc2c1

SMILES: Cn1c(=O)c(/N=N/c2cc(S(=O)(=O)O)ccc2S(=O)(=O)O)c(O)c2ccccc21
absorption maximum (in C1CCOC1): 428 nm
absorption maximum (in CC(C)=O): 421 nm
absorption maximum (in CCOC(C)=O): 423 nm
absorption maximum (in CO): 422 nm
absorption maximum (in CS(C)=O): 419 nm
absorption maximum (in Cc1ccccc1): 430 nm
absorption maximum (in ClCCl): 415 nm
absorption maximum (in O): 413 nm

SMILES: Cc1nc2c(c[n+]1C)CN1C(=O)N([C@H]3O[C@@H](CO)[C@H](O)[C@@H]3O)C=CC1=N2
absorption maximum (in CC#N): 390 nm
absorption maximum (in CC(C)=O): 391 nm
absorption maximum (in CCCCO): 390 nm
absorption maximum (in CCCO): 390 nm
absorption maximum (in CCO): 390 nm
absorption maximum (in CO): 390 nm
absorption maximum (in O): 384 nm
absorption maximum (in [2H]OC): 390 nm
absorption maximum (in [2H]OCC): 390 nm
absorption maximum (in [2H]O[2H]): 384 nm

absorption maximum (in CO): 649 nm
absorption maximum (in ClC(Cl)Cl): 669 nm
absorption maximum (in ClCCl): 670 nm
SMILES: CCN1C(=CC2=C([O-])C(=Cc3sc4ccccc4[n+]3CC)C2=O)Sc2ccccc21

absorption maximum (in C1CCOC1): 627 nm
absorption maximum (in CS(C)=O): 636 nm
absorption maximum (in ClCCl): 618 nm
SMILES: COc1cc(OC)cc(C2=C3C(C)=C(I)C(C)=[N+]3[B-](F)(F)n3c(/C=C/c4c[nH]c5ccccc45)c(I)c(C)c32)c1

absorption maximum (in CCO): 533 nm
absorption maximum (in O): 544 nm
SMILES: CN(C)c1ccc2c(-c3ccc(N)cc3C(=O)[O-])c3ccc(=[N+](C)C)cc-3oc2c1

SMILES: CCCCCCCCC1(CCCCCCCC)c2cc(C#Cc3ccc(N(c4ccccc4)c4ccccc4)cc3)ccc2-c2ccc(C=O)cc21
absorption maximum (in C1CCOC1): 378 nm
absorption maximum (in C1COCCO1): 381 nm
absorption maximum (in CC#N): 378 nm
absorption maximum (in CC(C)=O): 373 nm
absorption maximum (in CCOC(C)=O): 376 nm
absorption maximum (in CN(C)C=O): 380 nm
absorption maximum (in CS(C)=O): 381 nm
absorption maximum (in Cc1ccccc1): 388 nm
absorption maximum (in ClC(Cl)Cl): 386 nm
absorption maximum (in ClCCl): 384 nm

absorption maximum (in C1CCOC1): 695 nm
absorption maximum (in CS(C)=O): 712 nm
absorption maximum (in ClCCl): 690 nm
SMILES: COc1cc(OC)cc(C2=C3C(C)=C(I)C(/C=C/c4c[nH]c5ccc([N+](=O)[O-])cc45)=[N+]3[B-](F)(F)n3c(/C=C/c4c[nH]c5ccc([N+](=O)[O-])cc45)c(I)c(C)c32)c1

absorption maximum (in O): 480 nm
SMILES: CC[n+]1c(-c2ccccc2)c2cc(N)ccc2c2ccc(N)cc21

absorption maximum (in CCO): 367 nm
SMILES: CCOC(=O)/C=C/c1cc2ccc(O)cc2oc1=O
